Results: paper PMC2033546, “Effects of somatostatin analogue RC-160 and bombesin/gastrin-releasing peptide antagonists on the growth of human small-cell and non-small-cell lung carcinomas in nude mice” (British Journal of Cancer, 1994)
Where no end group is shown, it is not given here. [ ]: non-standard residue; d: D form.

Experiments:
[1] = system: non-SCLC cell line NCI-H157; test: Growth of H157 non-SCLC xenografts in nude mice; type: in vivo, human (xenograft in male athymic nude mice); conditions: RC-160 100 µg/day, RC-3095 20 µg/day
Text: (§1) Br. J. Cancer (1994). 70, 886 892 ? Macmillan Press Ltd.. […] Bombesin GRP antagonists. […] Lung carcinoma is the leading cause of cancer-related deaths in the western world. It is estimated that in 1992 there were approximately 168,000 new cases of lung cancer in the US and that about 146,000 deaths occurred from this disease (Boring et al., 1992). […] The growth factors such as bombesin/gastrin-releasing pep- tide (GRP), epidermal growth factor, (EGF), transforming growth factor a (TGF-x) and insulin-like growth factor I(IGF-I) appear to play a role in the proliferation and pro- gression of lung cancer (Cuttitta et al., 1985; Veale et al., 1987; Minuto et al., 1988; Siegfried & Owens, 1988; Macaulay et al., 1990; Tateishi et al., 1991; Damstrup et al., 1992; Sethi & Rozengurt, 1992; Rabiasz et al., 1992; Moody & Cuttitta, 1993). […] Tpi is 2,3,4,9-tetrahydro- Correspondence: A.V. Schally (151). VA Medical Center, 1601 Per- dido Street. New Orleans, LA 70146. USA. Received 1 March 1994; and in revised form 5 July 1994. Br. J. Cancer (1994), 70, 886-892 C Macmillan Press Ltd., 1994 PEPTIDE ANALOGUES IN LUNG CANCER 8U7 lH-pyrido [3,4bjindol-3-carboxylic acid, a conformationally constrained secondary amine derivate of tryptophan and Tac is thiazolidine-4-carboxylic acid. […] Animals Male athymic NCr nulmu nude mice, approximately 6 weeks old on arrival, were obtained from the NCI (Bethesda, MD, USA) and maintained under pathogen-limited conditions. Cell lines The human SCLC cell line NCI-H69, was obtained from the American Type Cell Culture (ATCC), Rockville, MD, USA and the non-SCLC cell line NCI-H157, from Dr H. Oie, NCI-Navy Medical Oncology Branch, Bethesda, MD, USA. These cell lines were cultured in RPMI-1640 medium supple- mented with 4 mM L-glutamine, 50 units ml-I penicilln G sodium, SOigml-' streptomycin sulphate, 0.125pgml-' amphotericin B and 10% fetal bovine serum at 3TC in a humidified 95% air/5% carbon dioxide atmosphere. CeLs were passaged weekly and routinely monitored for myco- plasma contamination using a detection kit (Boehringer- Mannheim, Mannheim, Germany). All culture media com- ponents were purchased from Gibco (Grand Island, NY, USA). Receptor assays Preparation of membranes for receptor studies was described previously (Halmos et al., 1993). Iodinated EGF and IGF-I were purchased from Amersham (Arlington Heights, IL, USA). Radioiodination of other peptides and receptor bind- ing of EGF, IGF-I, somatostatin and bombesin/GRP were performed as previously described (Srkalovic et al., 1989; Szepeshazi et al., 1992). Complete displacement assays on tumour membranes were done only once because of the shortage of tumour material. The LIGAND PC computerised curve-fitting programme of Munson and Rodbard (1980) was used to determine the types of receptor binding, dissociation constant (Kd) values, and the maximal binding capacity (BDj) of receptors. In order to determine the specificity of the binding sites for radiolabelled EGF, IGF-I, somatostatin and bombesin to lung cancer membranes, various structuraly related and unrelated peptides were tested for their ability to inhibit the binding of the tracers. Histological procedure The histological procedures were the same as described previously (Szepeshazi et al., 1991, 1992). The number of mitotic and apoptotic cells per 1,000 cells was determined, and the percentage area of necrosis in tumour sections was examined using the point-counting method (Szepeshazi et al., 1991, 1992), in which the crossing points of an ocular net that coincide with necrosis in various sections are counted. Radiommunoassays Serum levels of growth hormone were determined by double- antibody radioimmunoassay (RIA) using materials supplied by the National Hormone and Pituitary Program of the National Institute of Diabetes and Digestive and Kidney Diseases (NIDDK).

SCLC H69 tumours = test: Histology (mitosis, apoptosis, necrosis) of SCLC H69 tumours; type: in vivo, human (xenograft in nude mice); conditions: Table II, Experiment I (SCLC H69); control 0.96 ? 0.1; means ? s.e.; *P < 0.05 vs control
Text: as §1

[2] = system: Somatostatin receptors in membranes of SCLC H69 tumours; test: Somatostatin receptor binding on H69 tumour membranes after in vivo treatment; parameters: species or system human
Text: as §1, with “In order to determine the specificity of the binding sites for radiolabelled EGF, IGF-I, somatostatin and bombesin to lung cancer membranes, various structuraly related and unrelated peptides were tested for their ability to inhibit the binding of the tracers. Histological procedure The histological procedures were the same as described previously (Szepeshazi et al., 1991, 1992).” left out

For “[dF]CY[dW]KVCW-NH2 (cysteine pairing not given here) [RC-160, Somatostatin analogue RC-160]”, the “Growth of H157 non-SCLC tumours (in words)” value ([1]; 4 weeks s.c., SB-75 100 µg/day per animal, vs control) was “significantly reduced”, the “Tumour volume, final” value ([1]; Table I, Experiment II (non-SCLC H157), 4 weeks s.c. peritumoral, SB-75 100 µg/day per animal, control 1580.3 ? 455.7, means ? s.d., ten animals per group, *P<0.05 vs control) was 291.0 207.8* (mm)r and the Tumour weight ([1]; Table I, Experiment II (non-SCLC H157), 4 weeks s.c., SB-75 100 µg/day, control 1.9 ? 0.3, means ? s.d., *P<0.05 vs control) was 0.64 0.3* g. The Tumour doubling time ([1]; Table I, Experiment II (non-SCLC H157), 4 weeks s.c., SB-75 100 µg/day, control 3.88) was 6.06 days, the “Ratio of apoptotic to mitotic indices” value (SCLC H69 tumours) was 2.27 ± 0.5* and the “Somatostatin maximal binding capacity (Bmax)” value ([2]; Table IV, Experiment I (SCLC-H69), tumour membranes after in vivo treatment, control 450, done once) was 570 fmol mg-'protein. The “Binding capacity of receptors for somatostatin on H69 tumours (in words)” value ([2]; after in vivo treatment) was “increased the binding capacity of receptors for somatostatin”.
